Results taken from patent publication US20120015923A1, “USE OF ANDROGRAPHOLIDE COMPOUNDS FOR TREATING INFLAMMATION AND AIRWAY DISORDERS” (NATIONAL UNIVERSITY OF SINGAPORE, priority 2009, published 2012).

How the values were obtained:
Assay type in all cases: in vivo, BALB/c mice
p65 NF-κB = p65 NF-κB nuclear translocation and DNA-binding in lung tissue nuclear extracts; settings: 1 mg/kg; 24 hours after last OVA aerosol; reduced to the basal levels
Experimental: Lung and cell culture nuclear proteins ([…]) were isolated. Lysates were incubated on ice for 30 min before centrifugation (18,000 g for 5 min). The supernatants were collected, and protein concentrations were determined using a BCA protein assay kit. 28 μl of the protein measured were mixed with 7 μl 5× sample buffer and boiled at 95° C. for 5 min. 10% SDS-PAGE gel was set as known in the art. The gel was placed in a Trans-Blot tank (Bio-Rad Laboratories, Hercules, Calif.). 30 μl of the sample mixtures and Pre-stained SDS Page Marker (Bio-Rad Laboratories, Hercules, Calif.) were loaded into respective wells and ran at 100V for 2 hours. The proteins were then transferred to a PVDF membrane using a semi-dry transblotter (ATTO Corp, Tokyo, Japan). The PVDF membrane was blocked with 5% non-fat milk in Tween-20 Tris buffered saline (TTBS) for 2 hours and probed with various primary antibodies in 1% non-fat milk in TTBS (1:2,000 for anti-rabbit antibodies; 1:5,000 for anti-mouse antibodies; 1:10,000 for β-actin) overnight at 4° C. The PVDF was then washed with TTBS for 10 times (2-3 min each), and incubated in HRP- or AP-conjugated anti-mouse or anti-rabbit antibodies for 1 hour. The membrane was again washed with TTBS. […]
Nuclear proteins were also analyzed for NF-κB DNA-binding activity using the TransAM p65 transcription factor assay kit (Active Motif, Carlsbad, Calif.).

[1] = tested on: inflammatory gene expression in lung tissues; assay: Pulmonary mRNA expression of inflammatory markers (RT-PCR); settings: lungs 24 hours after last OVA aerosol
Experimental: Lungs were isolated from the thoracic cavity 24 hours after the last OVA or saline challenge, and stored in RNAlater. The samples were first incubated at […] overnight for the RNAlater to permeate into the lung tissues to stabilize the RNA. The samples were then stored at −80° C. Before RNA isolation, lung tissues were thawed at […] They were then removed from the RNAlater and immersed in 1 ml Trizol solution. Then, homogenization was performed using a homogenizer (SilentCrusher M, Heidolph Elektro GmbH & Co., Kelheim, Genman). All samples were placed on ice to prevent RNA degradation. The homogenates were then centrifuged at 12,000 g for 10 min at 4° C. The clear RNA containing supernatant was then decanted, incubated for 5 min in room temperature, and 0.2 ml of chloroform was added. All tubes were shaken vigorously for 15 seconds and incubated at room temperature for 3 minutes before being centrifuged at 12,000 g for 15 min at 4° C. About 500 μl of the colourless upper aqueous layer containing RNA, was decanted. 0.5 ml of isopropanol was added and mixed for 30 sec, before being incubated at room temperature for 10 minutes. The tubes were then centrifuged at 12000 rpm for 15 min at 4° C. The supernatant was discarded and 1 ml of 75% ethanol was added to the RNA pellet. Centrifugation at 8500 rpm for 5 minutes at 4° C. was then performed to wash the pellet. The supernatant was again discarded and the washed RNA pellet was air-dried at room temperature for 10 min. The dried RNA pellet was dissolved in 100 μl of ribonuclease-free DEPC water and incubated at 55° C. for 10 minutes. The amount and purity of RNA present in the sample was quantified using the spectrophotometer (NanoDrop ND-1000 from Thermo Risher
Reverse transcription was performed to synthesize single-stranded complementary DNA (cDNA) templates from the RNA extracted. Volume containing 1 μg total RNA was calculated based on the nucleic acid concentration measured from the spectrophotometer, and was topped up to 20 μl with DEPC water. 10.58 μl of master mix was then added to each sample. Then, cDNA was synthesized from 1 μg of RNA using a multiwall thermal cycler (GeneAmp PCR system 2700 from Applied Biosystems, Foster City, Calif., USA) by bringing the reaction volume to 95° C. for 10 minutes and 42° C. for 30 minutes.
PCR amplifications were then performed using the multiwell thermal cycler on 1 μl cDNA template in a 25 μl reaction volume. The reaction volume contained 10.5 μl nuclease-free water, 0.5 μl forward primer (10 μM), 0.5 μl reverse primer (10 μM) and 12.5 μl 2×PCR master mix (50 units/ml TaqDNA polymerase, 400 μM dATP, 400 μM dGTP, 400 μM dCTP, 400 μM dTTP and 3 mM MgCl2).

Nitric Oxide (NO) = assay: Serum nitrate nitrite level; settings: OVA-challenged mice
[2] = tested on: IL-4, IL-5, IL-13, eotaxin and IFN-γ in the BAL fluid; assay: Cytokine and chemokine levels in BAL fluid (ELISA), OVA mouse asthma model; settings: OVA-challenged mice

Row | Structure (SMILES) | nuclear p65 DNA-binding activity in lung tissue nuclear extract (p65 NF-κB) | nuclear p65 amount in lung tissue nuclear extract (p65 NF-κB) | AMCase mRNA expression in lung tissues ([1]; DDAG 1 mg/kg) | COX2 mRNA expression in lung tissues ([1]; DDAG 1 mg/kg) | E-selectin mRNA expression in lung tissues ([1]; DDAG 1 mg/kg) | IL-17 mRNA expression in lung tissues ([1]; DDAG 1 mg/kg) | IL-33 mRNA expression in lung tissues ([1]; DDAG 1 mg/kg) | Muc5ac mRNA expression in lung tissues ([1]; DDAG 1 mg/kg) | YKL-40 mRNA expression in lung tissues ([1]; DDAG 1 mg/kg) | Ym2 mRNA expression in lung tissues ([1]; DDAG 1 mg/kg) | serum nitrate nitrite level (Nitric Oxide (NO)) | ICAM-1 gene expression in lung [1] | VCAM-1 gene expression in lung [1] | YM1 gene expression in lung [1] | inducible nitric oxide synthase mRNA expression in lung tissues [1] | GM-CSF level in BAL fluid [2] | TNF-α level in BAL fluid [2]
1 | C=C1CCC2C(C)(CO)C(O)CCC2(C)C1C=CC1=CCOC1=O (stereo not shown) [DDAG, 14-Deoxy-11,12-didehydroandrographolide] | significantly (P<0.05) reduced | significantly (P<0.05) reduced | strong suppression | strong suppression | strong suppression | strong suppression | strong suppression | strong suppression | strong suppression | strong suppression | reduce | – | – | – | – | – | –
2 | C=C1CC[C@@H]2[C@](C)(CO)[C@H](O)CC[C@@]2(C)[C@@H]1C/C=C1/C(=O)OC[C@H]1O [Andrographolide] | – | – | markedly down-regulated | – | attenuated | – | – | attenuated | markedly down-regulated | markedly down-regulated | – | inhibition | inhibition | inhibition | attenuated | inhibited | inhibited
